Like-named read-outs stand apart in the source and are kept apart here. Peptide text beside a SMILES is read from it. * marks the point of attachment. pNA = O=[N+]([O-])c1ccc(N*)cc1; Cbz = O=C(OCc1ccccc1)*; Boc = CC(C)(C)OC(=O)*
Assays:
peptide amidase [1] = experiment: Enzymatic cleavage of N-terminal protected dipeptide amides; type: biochemical, orange
Description: The results in Table 7 were obtained using an eluent: TBA/acetonitrile 60/40 (% volume)

peptide amidase [2] = experiment: Effect of chelating agents, metal cations and enzyme inhibitors on peptide amidase activity; type: biochemical, navel oranges
Experimental: The effect of the following inhibitors on peptide amidase activity was determined under standard conditions according to the methods described in Example 1. The inhibitor concentration was 10 mM in each case.

[3] = tested on: peptide amidase from orange flavedo; experiment: Cleavage of amides of amino acids (TLC); type: biochemical; design: scale not given here; conditions: 50 μg/ml; 10 mM substrate; 24 h; 0.05M KPi, pH 7.5; * = slight traces
Experimental: A DEAE-purified enzyme was employed in these experiments (volumetric activity: 40 U/ml for the substrate For-Tyr-Arg-NH2).
from orange flavedo. (50 μg/ml; 10 mM substrate)
Eluent: pyridine/butanol/AcOH/H2 O (12:15:3:5).
Reaction: 24 h, RT; 0.05M KPi, pH 7.5., 30° C.
Blank sample without enzyme.

peptide amidase [4] = tested on: peptide amidase
Experimental: A reaction mixture comprising the following constituents was employed:
850 μl of the particular solvent/tris (50 mM; pH 7.5) mixture
100 μl of substrate (10 mM Z-Gly-Tyr-NH2)
50 μl of amidase (40 μg of protein)
The reaction was initiated by the addition of the enzyme to prevent inactivation of the enzyme prior to the reaction.

peptide amidase [5] = experiment: Enzymatic reaction of peptide amides with a chain length of greater than three amino acids; type: biochemical, orange
Experimental: Enzymatic reaction of peptide amides with a chain length of greater than
three amino acids. Reaction conditions: 10 mM substrate, 40 μg/ml
50 mM tris/HCL, pH 7.0, temp. 30° C.

peptide amidase [6] = experiment: Deamidation of N-terminal protected amino acid amides; type: biochemical, orange; conditions: for Spec. Activity / Yield: 10 mM substrate, 50 μg.ml peptide amidase, pH 7.0, 30° C.; for Spec. Activity: 50 mM tris/HCl
Experimental: Separating conditions according to Example 3A were employed.
Eluent: TBA/acetonitrile 65:35 (90:10 for Bz-Arg-NH2)
Reaction conditions: 10 mM substrate; 50 μg.ml peptide amidase; 50 mM
tris/HCl; pH 7.0; Temperature 30° C.

peptide amidase [7] = experiment: Effect of the acetone concentration on kinetic parameters Km and Vmax; type: biochemical, orange
Experimental: Substrate: Z--Gly--Tyr--NH2; 40 μg/ml peptide amidase in 50 mM

[8] = enzymatic cleavage of the C-terminal amide
[9] = inhibitor 0.01 m (10 mM), standard conditions of Example 1
[10] = 89.1% solvent, substrate Z-Gly-Tyr-NH2
[11] = 10 mM substrate, 40 μg/ml peptide amidase, 50 mM tris/HCL, pH 7.0, 30° C., 360 min
[12] = peptide amidase, pH 7, 10000 µM

Bz--Tyr--Ala--NH2
Yield (peptide amidase [1]; [8]): 65%

[N-]=[N+]=[N-].[Na+] [NaN3]
% activity remaining (peptide amidase [2]; [9]): 100%

NC(=O)[C@H](N)Cc1ccccc1 [D-Phe--NH2]
Reaction [3]: 0

CCN1C(=O)C=CC1=O [EMI, ethylmaleimide]
% activity remaining (peptide amidase [2]; [9]): 100%

NC(=O)[C@H](Cc1ccccc1)NC(=O)[C@@H]1CCCN1C(=O)OCc1ccccc1 [Z--Pro--Phe--NH2] (Cbz-Pro-Phe-NH2)
Yield (peptide amidase [1]; peptide amidase): 100%

CCO [Ethanol]
Activity (peptide amidase [4]; 5.0% solvent): 1.269 U/mg
Activity (peptide amidase [4]; 18.0% solvent): 0.938 U/mg
Activity (peptide amidase [4]; 27.0% solvent): 0.814 U/mg
Activity (peptide amidase [4]; 36.0% solvent): 0.613 U/mg
Activity (peptide amidase [4]; 45.0% solvent): 0.448 U/mg
Activity (peptide amidase [4]; 54.0% solvent): 0.284 U/mg
Activity (peptide amidase [4]; 63.0% solvent): 0.204 U/mg
Activity (peptide amidase [4]; 72.0% solvent): 0.149 U/mg
Activity (peptide amidase [4]; [10]): 0.083 U/mg

Luteinizing Hormone Releasing Factor [LHRH]
Yield (peptide amidase [5]; [11]): 90 %/6 h

CC(C)C[C@@H](N)C(N)=O [D-Leu--NH2]
Reaction [3]: 0

NC(=O)[C@@H](N)CO [Ser--NH2]
Reaction [3]: 0

NCCCC[C@H](N)C(N)=O [Lys--NH2]
Reaction [3]: 0

[Cl][Hg][Cl] [HgCl2]
% activity remaining (peptide amidase [2]; [9]): 95%

Bz--Tyr--Trp--NH2
Yield (peptide amidase [1]; [8]): 39%

NCC(=O)O [Glycine]
% activity remaining (peptide amidase [2]): 99%

NC(=O)[C@@H](N)Cc1ccc(O)cc1 [Tyr--NH2]
Reaction [3]: 0

Boc--cys(bzl)--Pro--Arg--Gly--NH2
Yield (peptide amidase [5]; [11]): 90 %/6 h

CC[C@H](C)[C@H](N)C(N)=O [Ile--NH2]
Reaction [3]: 0

Bz--Tyr--Ile--NH2
Yield (peptide amidase [1]; [8]): 100%

CC(C)C[C@H](NC(=O)[C@H](Cc1ccccc1)NC(=O)CNC(=O)CNC(=O)[C@@H](N)Cc1ccc(O)cc1)C(N)=O [H--Tyr--Gly--Gly--Phe--Leu--NH2, Leu-Enkephalin]
Yield (peptide amidase [5]; [11]): 100 %/6 h

N[C@@H]1CON=C1O [Cycloserine]
% activity remaining (peptide amidase [2]; [9]): 100%

CC(C)C[C@H](NC(=O)OC(C)(C)C)C(=O)N[C@H](C(N)=O)C(C)C [Boc--Leu--Val--NH2] (Boc-Leu-Val-NH2)
Yield (peptide amidase [1]; peptide amidase): 20%

NC(=O)[C@@H](N)Cc1cnc[nH]1 [His--NH2]
Reaction [3]: 0

O=C(O)CN(CCN(CC(=O)O)CC(=O)O)CC(=O)O [EDTA, ethylenedinitrilotetraacetic acid]
% activity remaining (peptide amidase [2]): 92%

C[C@@H]1C[C@@H]([C@H](O)CC2CC(=O)NC(=O)C2)C(=O)[C@@H](C)C1 [Cycloheximide]
% activity remaining (peptide amidase [2]; [9]): 98%

C[C@H](N)C(N)=O [Ala--NH2]
Reaction [3]: 0

CC(C)[C@H](NC(=O)OCc1ccccc1)C(=O)NCC(=O)N[C@@H](C)C(=O)N1CCC[C@H]1C(N)=O [Z--Val--Gly--Ala--Pro--NH2] (Cbz-VGAP-NH2)
Yield (peptide amidase [5]; peptide amidase, 6 h, 10000 µM, pH 7): 0 %/6 h

N=C(N)NCCC[C@H](N)C(N)=O [Arg--NH2]
Reaction [3]: 0

CSCC[C@H](N)C(N)=O [Met--NH2]
Reaction [3]: 0

CCCO [Propanol]
Activity (peptide amidase [4]; 5.0% solvent): 0.927 U/mg
Activity (peptide amidase [4]; 18.0% solvent): 0.772 U/mg
Activity (peptide amidase [4]; 27.0% solvent): 0.474 U/mg
Activity (peptide amidase [4]; 36.0% solvent): 0.342 U/mg
Activity (peptide amidase [4]; 45.0% solvent): 0.12 U/mg
Activity (peptide amidase [4]; 54.0% solvent): 0.1 U/mg
Activity (peptide amidase [4]; 63.0% solvent): 0.1 U/mg
Activity (peptide amidase [4]; 72.0% solvent): 0.1 U/mg
Activity (peptide amidase [4]; [10]): 0.05 U/mg

CC(=O)N[C@@H](Cc1c[nH]c2ccccc12)C(N)=O [Ac--Trp--NH2]
Spec. Activity (peptide amidase [6]): 2.32 U/mg
Yield (peptide amidase [6]; 28 min): 32.4 %/28 min
Yield (peptide amidase [6]; 120 min): 100 %/2 h
Yield after 45 min (peptide amidase [6]; [12]): 48.9%

NNC(N)=O [Semicarbazide]
% activity remaining (peptide amidase [2]; [9]): 102%

NC(=O)[C@H](Cc1ccccc1)NC(=O)CNC(=O)OCc1ccccc1 [Z--Gly--Phe--NH2] (Cbz-Gly-Phe-NH2)
Yield (peptide amidase [1]; peptide amidase): 100%

Bz--Tyr--Thr--NH2
Yield (peptide amidase [1]; [8]): 63%

O[C@H](CS)[C@H](O)CS (racemic) [Dithiothreitol]
% activity remaining (peptide amidase [2]; [9]): 100%

Bz--Tyr--Ser--NH2
Yield (peptide amidase [1]; [8]): 41%

C[C@@H](N)C(N)=O [D-Ala--NH2]
Reaction [3]: 0

NC(=O)CI [Iodoacetamide]
% activity remaining (peptide amidase [2]; [9]): 99%

O=S(=O)(F)Cc1ccccc1 [PMSF, phenylmethanesulfonyl fluoride]
inhibition of peptide amidase (in words) (peptide amidase [2]): significantly inhibited
% activity remaining (peptide amidase [2]; [9]): 55%
inhibition of peptide amidase (in words) (peptide amidase [2]; listed as phenylmethanesulfonyl fluoride): weak inhibition

N=C(N)NCCC[C@H](NC(=O)[C@H](Cc1ccc(O)cc1)NC=O)C(N)=O [For--Tyr--Arg--NH2]
Yield (peptide amidase [1]; peptide amidase): 100%

Bz--Tyr--Leu--NH2
Yield (peptide amidase [1]; [8]): 100%

O=C(O)c1cc[c]([Hg][OH])cc1 [p-OHMBA, parahydroxymercuribenzoate]
% activity remaining (peptide amidase [2]; [9]): 96%

Mal--Tyr--Arg--NH2
Yield (peptide amidase [1]; [8]): 100%

NC(=O)[C@H](Cc1ccc(O)cc1)NC(=O)CNC(=O)OCc1ccccc1 [Z--Gly--Tyr--NH2, benzyloxycarbonyl-glycyltyrosinamide] (Cbz-Gly-Tyr-NH2)
Yield (peptide amidase [1]; peptide amidase): 100%
Vmax (peptide amidase [7]; 5% acetone): 2.93 U/mg
Km (peptide amidase [7]; 5% acetone, 40 μg/ml peptide amidase, pH 7.5): 0.063 mM
Km (peptide amidase [7]; 20% acetone): 1.6 mM
Vmax (peptide amidase [7]; 20% acetone): 2.54 U/mg
Km (peptide amidase [7]; 40% acetone): 5.5 mM
Vmax (peptide amidase [7]; 40% acetone): 2.57 U/mg
Km (peptide amidase [7]; 60% acetone): 19.6 mM
Vmax (peptide amidase [7]; 60% acetone): 2.58 U/mg

N=C(N)NCCC[C@H](NC(=O)OCc1ccccc1)C(=O)N[C@@H](CCCNC(=N)N)C(=O)Nc1ccc([N+](=O)[O-])cc1 [Z--Arg--Arg--pNa, reference compound] (Cbz-Arg-Arg-pNA)
reaction (in words) (peptide amidase [1]; comparison, 12 h): No reaction in 12 h

CC(C)C[C@H](N)C(N)=O [Leu--NH2]
Reaction [3]: 0

N=C(N)NCCC[C@H](NC(=O)c1ccccc1)C(N)=O [Bz--Arg--NH2]
Spec. Activity (peptide amidase [6]): 4.39 U/mg
Yield (peptide amidase [6]; 28 min): 61.6 %/28 min
Yield (peptide amidase [6]; 120 min): 100 %/2 h
Yield after 45 min (peptide amidase [6]; [12]): 73.5%
variation of Km and Vmax with solvent concentration (in words) (peptide amidase [7]): did not vary significantly

NC(=O)[C@H](Cc1c[nH]c2ccccc12)NC(=O)OCc1ccccc1 [Z--Trp--NH2]
Spec. Activity (peptide amidase [6]): 0.37 U/mg
Yield (peptide amidase [6]; 28 min): 5.16 %/28 min
Yield (peptide amidase [6]; 120 min): 23.5 %/2 h
Yield after 45 min (peptide amidase [6]; [12]): 14.9%

C[C@@H](O)[C@H](N)C(N)=O [Thr--NH2]
Reaction [3]: 0

Bz--Tyr--Lys--NH2
Yield (peptide amidase [1]; [8]): 100%

CC(C)[C@H](N)C(N)=O [Val--NH2]
Reaction [3]: 0

NC(=O)[C@@H](N)Cc1ccccc1 [Phe--NH2]
Reaction [3]: 0

CC(C)=O [Acetone]
Activity (peptide amidase [4]; 5.0% solvent): 2.011 U/mg
Activity (peptide amidase [4]; 18.0% solvent): 1.863 U/mg
Activity (peptide amidase [4]; 27.0% solvent): 1.748 U/mg
Activity (peptide amidase [4]; 36.0% solvent): 1.527 U/mg
Activity (peptide amidase [4]; 45.0% solvent): 1.38 U/mg
Activity (peptide amidase [4]; 72.0% solvent): 0.585 U/mg
Activity (peptide amidase [4]; [10]): 0.224 U/mg

NC(=O)[C@H](Cc1ccc(O)cc1)NC(=O)c1ccccc1 [Bz--Tyr--NH2]
Spec. Activity (peptide amidase [6]): 6.34 U/mg
Yield (peptide amidase [6]; 28 min): 88.7 %/28 min
Yield (peptide amidase [6]; 120 min): 100 %/2 h
yield after 15 minutes (peptide amidase [6]; [12]): 47.6%
Yield (peptide amidase [1]; [8]): 100%

NC(=O)[C@@H](N)Cc1c[nH]c2ccccc12 [Trp--NH2]
Reaction [3]: 0

Bz--Tyr--Val--NH2
Yield (peptide amidase [1]; [8]): 100%

— patent publication US5369016A, “Peptide amidase and the use thereof” (Forschungszentrum Juelich GmbH, priority 1990, dated 1994)
